Experimental data published in ChEMBL document CHEMBL1154354, “Synthetic peptides containing a conserved sequence motif of the Id protein family modulate vascular smooth muscle cell phenotype” (Bioorg Med Chem Lett, 2009).
Each block holds one molecule with its values, some of them ahead of it. The source made the active and inactive calls. The calls are words filed in the database; no cut-off is given here.

Experiments:
HSMC = test: (§1) Antiproliferative activity against HSMC expressing Id-protein assessed as reduction in cell growth after 72 hrs by Coulter counting; type: functional; settings: Homo sapiens
[1] = as §1; type: functional, Homo sapiens; set-up: scale not given: the % may be the effect or the level left
[2] = Perinuclear localization in HSMC after 6 hrs by fluorescence microscopy; type: ADME, cell-based; settings: human
[3] = Drug uptake by HSMC assessed as mean fluorescence index after 72 hrs by FACS; type: ADME; settings: human
[4] = target: T1, DNA-binding protein inhibitor ID-1 (Homo sapiens) (UniProt P41134); test: Decrease in ID1-protein level in HSMC by Western blotting
T1 sequence (whole entry): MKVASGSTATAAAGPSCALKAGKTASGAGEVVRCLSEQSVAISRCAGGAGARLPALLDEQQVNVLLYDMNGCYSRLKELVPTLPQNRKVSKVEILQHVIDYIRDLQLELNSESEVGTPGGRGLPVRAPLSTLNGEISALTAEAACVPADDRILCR

[5] = target: T1, DNA-binding protein inhibitor ID-1 (Homo sapiens); test: Inhibition of ID1-protein in HSMC assessed as increase in alpha-actin protein level by Western blotting
[6] = target: T1, DNA-binding protein inhibitor ID-1 (Homo sapiens); test: Inhibition of ID1-protein in HSMC assessed as increase in alpha-actin mRNA level by real time PCR
[7] = target: T1, DNA-binding protein inhibitor ID-1 (Homo sapiens); test: Binding affinity to ID-HLH domain by CD spectroscoy
[8] = Inhibition of PDGF-stimulated HSMC migration after 8 hrs by Boyden chamber assay; type: functional, Homo sapiens; set-up: scale not given: the % may be the effect or the level left

Molecule: Ac-LYDMNGCYSRLKELVPTLPQNRKVSKVEILQHVIDYIRDLQ-NH2
Activity (HSMC): Toxic

Molecule: CC[C@H](C)[C@H](NC(=O)[C@H](Cc1ccc(O)cc1)NC(=O)[C@H](CC(=O)O)NC(=O)[C@@H](NC(=O)[C@@H](NC(=O)[C@H](Cc1cnc[nH]1)NC(=O)[C@H](CCC(N)=O)NC(=O)[C@H](CC(C)C)NC(=O)[C@@H](NC(=O)[C@H](CCC(=O)O)NC(=O)[C@@H](NC(=O)[C@H](CCCCN)NC(=O)C1CCC(C(NC(=O)c2ccccc2)C(=O)N[C@@H](CCCCN)C(=O)N[C@H](C(=O)N[C@@H](CCC(=O)O)C(=O)N[C@H](C(=O)N[C@@H](CC(C)C)C(=O)N[C@@H](CCC(N)=O)C(=O)N[C@@H](Cc2cnc[nH]2)C(=O)N[C@H](C(=O)N[C@H](C(=O)N[C@@H](CC(=O)O)C(=O)N[C@@H](Cc2ccc(O)cc2)C(=O)N[C@H](C(=O)N[C@@H](CCCNC(=N)N)C(=O)N[C@@H](CC(C)C)C(=O)N[C@@H](CC(=O)O)C(=O)N[C@@H](CCC(N)=O)C(N)=O)[C@@H](C)CC)[C@@H](C)CC)C(C)C)[C@@H](C)CC)C(C)C)C1)C(C)C)[C@@H](C)CC)C(C)C)[C@@H](C)CC)C(=O)N[C@@H](CCCNC(=N)N)C(=O)N[C@@H](CC(C)C)C(=O)N[C@@H](CC(=O)O)C(=O)N[C@@H](CCC(N)=O)C(N)=O (stereo partly drawn)
Activity [1]: 30%

Activity [2]: Active
Activity [3]: Dose-dependent effect
Molecule: CC[C@H](C)[C@H](NC(=O)[C@H](CCC(=O)O)NC(=O)[C@@H](NC(=O)[C@H](CCCCN)NC(=O)[C@H]1CC[C@@H]([C@H](NC(=O)c2cccc3c2C(=O)OC32c3ccc(O)cc3Oc3cc(O)ccc32)C(=O)O[C@@H](CCCCN)C(=O)N[C@H](C(=O)N[C@@H](CCC(=O)O)C(=O)N[C@H](C(=O)N[C@@H](CC(C)C)C(=O)N[C@@H](CCC(N)=O)C(=O)N[C@@H](Cc2cnc[nH]2)C(=O)N[C@H](C(=O)N[C@H](C(=O)N[C@@H](CC(=O)O)C(=O)N[C@@H](Cc2ccc(O)cc2)C(=O)N[C@@H](CCCCN)C(=O)N[C@@H](CCCCN)C(=O)N[C@@H](CCCCN)C(N)=O)[C@@H](C)CC)C(C)C)[C@@H](C)CC)C(C)C)C1)C(C)C)C(=O)N[C@@H](CC(C)C)C(=O)N[C@@H](CCC(N)=O)C(=O)N[C@@H](Cc1cnc[nH]1)C(=O)N[C@H](C(=O)N[C@H](C(=O)N[C@@H](CC(=O)O)C(=O)N[C@@H](Cc1ccc(O)cc1)C(=O)N[C@@H](CCCCN)C(=O)N[C@@H](CCCCN)C(=O)N[C@@H](CCCCN)C(N)=O)[C@@H](C)CC)C(C)C

Molecule: CC[C@H](C)[C@H](NC(=O)[C@H](CCC(=O)O)NC(=O)[C@@H](NC(=O)[C@H](CCCCN)NC(=O)[C@@H]1CC[C@H]([C@@H](NC(=O)c2ccccc2)C(=O)N[C@@H](CCCCN)C(=O)N[C@H](C(=O)N[C@@H](CCC(=O)O)C(=O)N[C@H](C(=O)N[C@@H](CC(C)C)C(=O)N[C@@H](CCC(N)=O)C(=O)N[C@@H](Cc2cnc[nH]2)C(=O)N[C@H](C(=O)N[C@H](C(=O)N[C@@H](CC(=O)O)C(=O)N[C@@H](Cc2ccc(O)cc2)C(N)=O)[C@@H](C)CC)C(C)C)[C@@H](C)CC)C(C)C)C1)C(C)C)C(=O)N[C@@H](CC(C)C)C(=O)N[C@@H](CCC(N)=O)C(=O)N[C@@H](Cc1cnc[nH]1)C(=O)N[C@H](C(=O)N[C@H](C(=O)N[C@@H](CC(=O)O)C(=O)N[C@@H](Cc1ccc(O)cc1)C(N)=O)[C@@H](C)CC)C(C)C
Activity [1]: 40%

Activity [4]: Active
Activity [5]: Dose-dependent effect
Activity [6]: Dose-dependent effect
K0.5 [7]: 6.6 µM
Molecule: CC[C@H](C)[C@H](NC(=O)[C@H](CCC(=O)O)NC(=O)[C@@H](NC(=O)[C@H](CCCCN)NC(=O)[C@H]1CC[C@@H]([C@H](NC(=O)c2ccccc2)C(=O)N[C@@H](CCCCN)C(=O)N[C@H](C(=O)N[C@@H](CCC(=O)O)C(=O)N[C@H](C(=O)N[C@@H](CC(C)C)C(=O)N[C@@H](CCC(N)=O)C(=O)N[C@@H](Cc2cnc[nH]2)C(=O)N[C@H](C(=O)N[C@H](C(=O)N[C@@H](CC(=O)O)C(=O)N[C@@H](Cc2ccc(O)cc2)C(N)=O)[C@@H](C)CC)C(C)C)[C@@H](C)CC)C(C)C)C1)C(C)C)C(=O)N[C@@H](CC(C)C)C(=O)N[C@@H](CCC(N)=O)C(=O)N[C@@H](Cc1cnc[nH]1)C(=O)N[C@H](C(=O)N[C@H](C(=O)N[C@@H](CC(=O)O)C(=O)N[C@@H](Cc1ccc(O)cc1)C(N)=O)[C@@H](C)CC)C(C)C
Activity [1]: 40%

Molecule: CC[C@H](C)[C@H](NC(=O)[C@H](CCC(=O)O)NC(=O)[C@@H](NC(=O)[C@H](CCCCN)NC(=O)C1CCC(C(NC(=O)c2ccccc2)C(=O)N[C@@H](CCCCN)C(=O)N[C@H](C(=O)N[C@@H](CCC(=O)O)C(=O)N[C@H](C(=O)N[C@@H](CC(C)C)C(=O)N[C@@H](CCC(N)=O)C(=O)N[C@@H](Cc2cnc[nH]2)C(=O)N[C@H](C(=O)N[C@H](C(=O)N[C@@H](CC(=O)O)C(=O)N[C@@H](Cc2ccc(O)cc2)C(N)=O)[C@@H](C)CC)C(C)C)[C@@H](C)CC)C(C)C)C1)C(C)C)C(=O)N[C@@H](CC(C)C)C(=O)N[C@@H](CCC(N)=O)C(=O)N[C@@H](Cc1cnc[nH]1)C(=O)N[C@H](C(=O)N[C@H](C(=O)N[C@@H](CC(=O)O)C(=O)N[C@@H](Cc1ccc(O)cc1)C(N)=O)[C@@H](C)CC)C(C)C (stereo partly drawn)
Activity [1]: 40%
Activity [8]: 20%

Molecule: H-KVEILQHVIDYIRDLQ-OH
Activity (HSMC): inactive
